Measured values taken from ChEMBL document CHEMBL1275409, “Antimicrobial-resistant pathogens in intensive care units in Canada: results of the Canadian National Intensive Care Unit (CAN-ICU) study, 2005-2006” (2008).

Tests used:
Assay type in all cases: functional
Escherichia coli [1] = assay: Antimicrobial activity against CTX-M ESBL producing Escherichia coli isolated from ICU patient respiratory tract assessed as resistant isolates by broth microdilution method
Enterobacter cloacae [2] = assay: Antimicrobial activity against carbapenem-resistant Enterobacter cloacae isolated from ICU patient blood assessed as resistant isolates by broth microdilution method
Escherichia coli [3] = assay: Antimicrobial activity against CTX-M ESBL producing Escherichia coli isolated from ICU patient urine assessed as resistant isolates by broth microdilution method
Enterobacter cloacae [4] = assay: Antimicrobial activity against carbapenem-resistant Enterobacter cloacae assessed as resistant isolates by broth microdilution method
Pseudomonas aeruginosa [5] = assay: Antimicrobial activity against carbapenem-resistant Pseudomonas aeruginosa assessed as resistant isolates by broth microdilution method
Escherichia coli [6] = assay: Antimicrobial activity against CTX-M ESBL producing Escherichia coli assessed as resistant isolates by broth microdilution method
Enterobacter cloacae [7] = assay: Antimicrobial activity against carbapenem-resistant Enterobacter cloacae isolated from ICU patient wound assessed as resistant isolates by broth microdilution method
Escherichia coli [8] = assay: Antimicrobial activity against CTX-M ESBL producing Escherichia coli isolated from ICU patient wound assessed as resistant isolates by broth microdilution method
Escherichia coli [9] = assay: Antimicrobial activity against CTX-M ESBL producing Escherichia coli isolated from ICU patient blood assessed as resistant isolates by broth microdilution method
Enterobacter cloacae [10] = assay: Antimicrobial activity against carbapenem-resistant Enterobacter cloacae isolated from ICU patient urine assessed as resistant isolates by broth microdilution method
Enterobacter cloacae [11] = assay: Antimicrobial activity against carbapenem-resistant Enterobacter cloacae isolated from ICU patient respiratory tract assessed as resistant isolates by broth microdilution method
Pseudomonas aeruginosa [12] = assay: Antimicrobial activity against carbapenem-resistant Pseudomonas aeruginosa isolated from ICU patient wound assessed as resistant isolates by broth microdilution method
Pseudomonas aeruginosa [13] = assay: Antimicrobial activity against carbapenem-resistant Pseudomonas aeruginosa isolated from ICU patient urine assessed as resistant isolates by broth microdilution method
Klebsiella pneumoniae [14] = assay: Antimicrobial activity against ESBL producing Klebsiella pneumoniae isolated from ICU patient urine assessed as resistant isolates by broth microdilution method
Klebsiella pneumoniae [15] = assay: Antimicrobial activity against ESBL producing Klebsiella pneumoniae assessed as resistant isolates by broth microdilution method
Klebsiella pneumoniae [16] = assay: Antimicrobial activity against ESBL producing Klebsiella pneumoniae isolated from ICU patient blood assessed as resistant isolates by broth microdilution method
Klebsiella pneumoniae [17] = assay: Antimicrobial activity against ESBL producing Klebsiella pneumoniae isolated from ICU patient wound assessed as resistant isolates by broth microdilution method
Pseudomonas aeruginosa [18] = assay: Antimicrobial activity against carbapenem-resistant Pseudomonas aeruginosa isolated from ICU patient respiratory tract assessed as resistant isolates by broth microdilution method
Klebsiella pneumoniae [19] = assay: Antimicrobial activity against ESBL producing Klebsiella pneumoniae isolated from ICU patient respiratory tract assessed as resistant isolates by broth microdilution method
Pseudomonas aeruginosa [20] = assay: Antimicrobial activity against carbapenem-resistant Pseudomonas aeruginosa isolated from ICU patient blood assessed as resistant isolates by broth microdilution method
Staphylococcus aureus [21] = assay: Antimicrobial activity against methicillin-susceptible Staphylococcus aureus isolated from ICU patient urine assessed as resistant isolates by broth microdilution method
Staphylococcus aureus [22] = assay: Antimicrobial activity against methicillin-susceptible Staphylococcus aureus isolated from ICU patient respiratory tract assessed as resistant isolates by broth microdilution method
Staphylococcus aureus [23] = assay: Antimicrobial activity against methicillin-resistant Staphylococcus aureus isolated from ICU patient urine assessed as resistant isolates by broth microdilution method
Staphylococcus aureus [24] = assay: Antimicrobial activity against methicillin-resistant Staphylococcus aureus assessed as resistant isolates by broth microdilution method
Staphylococcus aureus [25] = assay: Antimicrobial activity against methicillin-susceptible Staphylococcus aureus assessed as resistant isolates by broth microdilution method
Enterococcus sp. [26] = assay: Antimicrobial activity against vancomycin-resistant Enterococcus sp. isolated from ICU patient respiratory tract assessed as resistant isolates by broth microdilution method
Enterococcus sp. [27] = assay: Antimicrobial activity against vancomycin-resistant Enterococcus sp. isolated from ICU patient blood assessed as resistant isolates by broth microdilution method
Enterococcus sp. [28] = assay: Antimicrobial activity against vancomycin-resistant Enterococcus sp. assessed as resistant isolates by broth microdilution method
Staphylococcus aureus [29] = assay: Antimicrobial activity against methicillin-resistant Staphylococcus aureus isolated from ICU patient blood assessed as resistant isolates by broth microdilution method
Staphylococcus aureus [30] = assay: Antimicrobial activity against methicillin-resistant Staphylococcus aureus isolated from ICU patient respiratory tract assessed as resistant isolates by broth microdilution method
Staphylococcus aureus [31] = assay: Antimicrobial activity against methicillin-susceptible Staphylococcus aureus isolated from ICU patient blood assessed as resistant isolates by broth microdilution method
Enterococcus sp. [32] = assay: Antimicrobial activity against vancomycin-resistant Enterococcus sp. isolated from ICU patient wound assessed as resistant isolates by broth microdilution method
Staphylococcus aureus [33] = assay: Antimicrobial activity against methicillin-resistant Staphylococcus aureus isolated from ICU patient wound assessed as resistant isolates by broth microdilution method
Staphylococcus aureus [34] = assay: Antimicrobial activity against methicillin-susceptible Staphylococcus aureus isolated from ICU patient wound assessed as resistant isolates by broth microdilution method
Enterococcus sp. [35] = assay: Antimicrobial activity against vancomycin-resistant Enterococcus sp. isolated from ICU patient urine assessed as resistant isolates by broth microdilution method

Compound | Activity (Escherichia coli [1]) | Activity (Enterobacter cloacae [2]) | Activity (Escherichia coli [3]) | Activity (Enterobacter cloacae [4]) | Activity (Pseudomonas aeruginosa [5]) | Activity (Escherichia coli [6]) | Activity (Enterobacter cloacae [7]) | Activity (Escherichia coli [8]) | Activity (Escherichia coli [9]) | Activity (Enterobacter cloacae [10]) | Activity (Enterobacter cloacae [11]) | Activity (Pseudomonas aeruginosa [12]) | Activity (Pseudomonas aeruginosa [13]) | Activity (Klebsiella pneumoniae [14]) | Activity (Klebsiella pneumoniae [15]) | Activity (Klebsiella pneumoniae [16]) | Activity (Klebsiella pneumoniae [17]) | Activity (Pseudomonas aeruginosa [18]) | Activity (Klebsiella pneumoniae [19]) | Activity (Pseudomonas aeruginosa [20]) | other results
NCC[C@H](O)C(=O)N[C@@H]1C[C@H](N)[C@@H](O[C@H]2O[C@H](CN)[C@@H](O)[C@H](O)[C@H]2O)[C@H](O)[C@H]1O[C@H]1O[C@H](CO)[C@@H](O)[C@H](N)[C@H]1O [AMIKACIN] | 0% | 0% | 0% | 0% | 0% | 0% | 0% | 0% | 0% | 0% | 0% | 0% | 0% | 6.7% | 2.6% | 0% | 1.9% | 0% | 2.4% | 0% | –
CN(C)c1cc(NC(=O)CNC(C)(C)C)c(O)c2c1C[C@H]1C[C@H]3[C@H](N(C)C)C(O)=C(C(N)=O)C(=O)[C@@]3(O)C(O)=C1C2=O [TIGECYCLINE] | 0% | 0% | 0% | 0.6% | 0.4% | 0% | 0% | 0% | 0% | 6.3% | 0% | 3.9% | 2% | – | – | – | – | 0% | – | 0% | Activity (Staphylococcus aureus [21]): 0%; Activity (Staphylococcus aureus [22]): 0%; Activity (Staphylococcus aureus [23]): 0%; Activity (Staphylococcus aureus [24]): 0%; Activity (Staphylococcus aureus [25]): 0%; Activity (Enterococcus sp. [26]): 0%; Activity (Enterococcus sp. [27]): 0%; Activity (Enterococcus sp. [28]): 0%; Activity (Staphylococcus aureus [29]): 0%; Activity (Staphylococcus aureus [30]): 0%; Activity (Staphylococcus aureus [31]): 0%; Activity (Enterococcus sp. [32]): 0%; Activity (Staphylococcus aureus [33]): 0%; Activity (Staphylococcus aureus [34]): 0%; Activity (Enterococcus sp. [35]): 0%
GENTAMICIN | 3.3% | 8.3% | 1.1% | 3% | 0% | 3% | 0% | 6.9% | 6.9% | 6.3% | 1.9% | 0% | 0% | 22.2% | 15.2% | 9.1% | 18.9% | 0% | 14.2% | 0% | –
